± gives the expanded uncertainty stated by the source.
How the values were obtained:
[1] = xn = mol fraction of the nth substance listed; settings: 298.15 K, 101 kPa, Liquid; for viscosity: Capillary tube (Ostwald / Ubbelohde) method
[2] = refractive index (Na D-line) (dimensionless); xn = mol fraction of the nth substance listed; settings: 298.15 K, 101 kPa, Liquid, Standard Abbe refractometry
[3] = 298.15 K; 101 kPa; Liquid
[4] = refractive index (Na D-line) (dimensionless); settings: 298.15 K; 101.33 kPa; Liquid; Standard Abbe refractometry

CCCCCCCCl [1-chloroheptane] + CCCCOC(C)=O
Settings	mass density, [1] [kg/m3]	refractive index, [2]	viscosity, [1] [mPa·s]
x2 = 0	872.79 ± 0.36	1.4236 ± 0.0004	–
x2 = 0.0505	872.6 ± 0.36	1.4219 ± 0.0004	0.828 ± 0.007
x2 = 0.1006	872.52 ± 0.36	1.4203 ± 0.0004	0.815 ± 0.007
x2 = 0.1503	872.45 ± 0.36	1.4189 ± 0.0004	0.803 ± 0.006
x2 = 0.2014	872.41 ± 0.36	1.4175 ± 0.0004	0.792 ± 0.006
x2 = 0.3003	872.39 ± 0.36	1.4147 ± 0.0004	0.77 ± 0.006
x2 = 0.3505	872.42 ± 0.36	1.4133 ± 0.0004	0.759 ± 0.006
x2 = 0.4007	872.48 ± 0.36	1.4118 ± 0.0004	0.749 ± 0.006
x2 = 0.4503	872.56 ± 0.36	1.4103 ± 0.0004	0.739 ± 0.006
x2 = 0.5006	872.71 ± 0.36	1.4087 ± 0.0004	0.729 ± 0.006
x2 = 0.6001	873.07 ± 0.36	1.4054 ± 0.0004	0.71 ± 0.006
x2 = 0.65	873.32 ± 0.36	1.4037 ± 0.0004	0.7 ± 0.006
x2 = 0.6996	873.64 ± 0.36	1.402 ± 0.0004	0.691 ± 0.006
x2 = 0.7499	873.97 ± 0.36	1.4003 ± 0.0004	0.682 ± 0.006
x2 = 0.8001	874.32 ± 0.36	1.3986 ± 0.0004	0.674 ± 0.006
x2 = 0.9	875.2 ± 0.36	1.3952 ± 0.0004	0.659 ± 0.006

CCCCOC(C)=O [butyl ethanoate] + CCCCCCCl
x1 = 1
Settings	mass density [kg/m3]	refractive index
[1]	876.28 ± 0.36	–
[2]	–	1.3918 ± 0.0004

CCCCOC(C)=O [butyl ethanoate]
Settings	mass density [kg/m3]	refractive index
[3]	876.28 ± 0.36	–
[4]	–	1.3918 ± 0.0004

CCCCCCCl [1-chlorohexane] + CCCCOC(C)=O
Settings	mass density, [1] [kg/m3]	refractive index, [2]	viscosity, [1] [mPa·s]
x2 = 0	873.39 ± 0.47	1.4171 ± 0.0004	–
x2 = 0.0568	873.06 ± 0.47	1.4159 ± 0.0004	0.662 ± 0.007
x2 = 0.1099	872.97 ± 0.46	1.4148 ± 0.0004	0.659 ± 0.006
x2 = 0.1638	872.88 ± 0.45	1.4137 ± 0.0004	0.657 ± 0.006
x2 = 0.2188	872.81 ± 0.44	1.4125 ± 0.0004	0.655 ± 0.006
x2 = 0.3237	872.8 ± 0.43	1.4102 ± 0.0004	0.652 ± 0.006
x2 = 0.3745	872.83 ± 0.42	1.4091 ± 0.0004	0.651 ± 0.006
x2 = 0.4271	872.87 ± 0.42	1.4078 ± 0.0004	0.65 ± 0.006
x2 = 0.4773	872.98 ± 0.41	1.4066 ± 0.0004	0.649 ± 0.006
x2 = 0.5286	873.11 ± 0.4	1.4053 ± 0.0004	0.648 ± 0.006
x2 = 0.6265	873.53 ± 0.39	1.4028 ± 0.0004	0.646 ± 0.006
x2 = 0.6753	873.78 ± 0.39	1.4015 ± 0.0004	0.645 ± 0.006
x2 = 0.7232	874.04 ± 0.38	1.4001 ± 0.0004	0.645 ± 0.006
x2 = 0.8171	874.66 ± 0.37	1.3973 ± 0.0004	0.645 ± 0.006
x2 = 0.8631	875.01 ± 0.37	1.3959 ± 0.0004	0.645 ± 0.006

CCCCOC(C)=O [butyl ethanoate] + CCCCCCCCCl
x1 = 1
Settings	mass density [kg/m3]	refractive index
[1]	876.28 ± 0.36	–
[2]	–	1.3918 ± 0.0004

CCCCCCl [1-chloropentane] + CCCCOC(C)=O
Settings	mass density, [1] [kg/m3]	refractive index, [2]	viscosity, [1] [mPa·s]
x2 = 0	876.93 ± 0.47	1.4097 ± 0.0004	–
x2 = 0.05	876.71 ± 0.46	1.4081 ± 0.0004	0.55 ± 0.006
x2 = 0.1	876.44 ± 0.45	1.4065 ± 0.0004	0.552 ± 0.006
x2 = 0.15	876.14 ± 0.45	1.405 ± 0.0004	0.554 ± 0.006
x2 = 0.2	875.89 ± 0.44	1.4036 ± 0.0004	0.557 ± 0.006
x2 = 0.3	875.46 ± 0.43	1.401 ± 0.0004	0.563 ± 0.006
x2 = 0.35	875.29 ± 0.42	1.3998 ± 0.0004	0.567 ± 0.006
x2 = 0.4	875.2 ± 0.42	1.3987 ± 0.0004	0.571 ± 0.006
x2 = 0.5	875.11 ± 0.4	1.3967 ± 0.0004	0.58 ± 0.006
x2 = 0.6	875.15 ± 0.39	1.395 ± 0.0004	0.591 ± 0.006
x2 = 0.7019	875.34 ± 0.38	1.3936 ± 0.0004	0.603 ± 0.006
x2 = 0.75	875.48 ± 0.38	1.3931 ± 0.0004	0.61 ± 0.006
x2 = 0.7998	875.62 ± 0.37	1.3926 ± 0.0004	0.616 ± 0.006
x2 = 0.9	875.94 ± 0.36	1.3921 ± 0.0004	0.631 ± 0.006

CCCCCl [1-chlorobutane] + CCCCOC(C)=O
Settings	mass density, [1] [kg/m3]	refractive index, [2]	viscosity, [1] [mPa·s]
x2 = 0	880.87 ± 0.35	1.3996 ± 0.0004	–
x2 = 0.0503	880.41 ± 0.35	1.3989 ± 0.0004	0.42 ± 0.005
x2 = 0.1111	879.89 ± 0.35	1.3981 ± 0.0004	0.432 ± 0.005
x2 = 0.1527	879.56 ± 0.35	1.3976 ± 0.0004	0.441 ± 0.005
x2 = 0.2003	879.19 ± 0.35	1.3971 ± 0.0004	0.451 ± 0.005
x2 = 0.2996	878.52 ± 0.35	1.3961 ± 0.0004	0.473 ± 0.005
x2 = 0.3493	878.23 ± 0.35	1.3956 ± 0.0004	0.484 ± 0.005
x2 = 0.3978	877.97 ± 0.35	1.3952 ± 0.0004	0.495 ± 0.005
x2 = 0.4508	877.72 ± 0.35	1.3947 ± 0.0004	0.507 ± 0.005
x2 = 0.4997	877.51 ± 0.35	1.3943 ± 0.0004	0.519 ± 0.005
x2 = 0.55	877.31 ± 0.35	1.3939 ± 0.0004	0.531 ± 0.005
x2 = 0.5985	877.15 ± 0.35	1.3936 ± 0.0004	0.543 ± 0.005
x2 = 0.6501	876.99 ± 0.35	1.3933 ± 0.0004	0.555 ± 0.005
x2 = 0.7002	876.84 ± 0.35	1.393 ± 0.0004	0.568 ± 0.006
x2 = 0.7493	876.72 ± 0.36	1.3928 ± 0.0004	0.58 ± 0.006
x2 = 0.8042	876.6 ± 0.36	1.3925 ± 0.0004	0.594 ± 0.006
x2 = 0.85	876.51 ± 0.36	1.3923 ± 0.0004	0.606 ± 0.006
x2 = 0.8991	876.43 ± 0.36	1.3921 ± 0.0004	0.619 ± 0.006

CCCCCCl [1-chloropentane]
Settings	mass density [kg/m3]	refractive index
[3]	876.93 ± 0.47	–
[4]	–	1.4097 ± 0.0004

CCCCOC(C)=O [butyl ethanoate] + CCCCCCCCl
x1 = 1
Settings	mass density [kg/m3]	refractive index
[1]	876.28 ± 0.36	–
[2]	–	1.3918 ± 0.0004

CCCCCCCCCl [1-chlorooctane] + CCCCOC(C)=O
Settings	mass density, [1] [kg/m3]	refractive index, [2]	viscosity, [1] [mPa·s]
x2 = 0	868.71 ± 0.37	1.4282 ± 0.0004	–
x2 = 0.0507	868.69 ± 0.37	1.4271 ± 0.0004	1.032 ± 0.008
x2 = 0.1002	868.7 ± 0.37	1.4264 ± 0.0004	1.007 ± 0.007
x2 = 0.1498	868.74 ± 0.37	1.4256 ± 0.0004	0.981 ± 0.007
x2 = 0.1999	868.73 ± 0.37	1.4247 ± 0.0004	0.959 ± 0.007
x2 = 0.3001	868.77 ± 0.37	1.4222 ± 0.0004	0.911 ± 0.007
x2 = 0.3496	868.82 ± 0.37	1.4208 ± 0.0004	0.889 ± 0.007
x2 = 0.4001	868.99 ± 0.37	1.4192 ± 0.0004	0.867 ± 0.007
x2 = 0.4503	869.17 ± 0.37	1.4174 ± 0.0004	0.846 ± 0.007
x2 = 0.5	869.45 ± 0.37	1.4156 ± 0.0004	0.825 ± 0.007
x2 = 0.6019	870.13 ± 0.36	1.4114 ± 0.0004	0.784 ± 0.006
x2 = 0.6999	871.1 ± 0.36	1.4069 ± 0.0004	0.745 ± 0.006
x2 = 0.7998	872.48 ± 0.36	1.4018 ± 0.0004	0.708 ± 0.006
x2 = 0.8999	874.25 ± 0.36	1.3968 ± 0.0004	0.674 ± 0.006

CCCCCCCl [1-chlorohexane]
Settings	mass density [kg/m3]	refractive index
[3]	873.39 ± 0.47	–
[4]	–	1.4171 ± 0.0004

CCCCCCCCCl [1-chlorooctane]
Settings	mass density [kg/m3]	refractive index
[3]	868.71 ± 0.37	–
[4]	–	1.4282 ± 0.0004

CCCCOC(C)=O [butyl ethanoate] + CCCCCCl
x1 = 1
Settings	mass density [kg/m3]	refractive index
[1]	876.28 ± 0.36	–
[2]	–	1.3918 ± 0.0004

CCCCOC(C)=O [butyl ethanoate] + CCCCCl
x1 = 1
Settings	mass density [kg/m3]	refractive index
[1]	876.28 ± 0.36	–
[2]	–	1.3918 ± 0.0004

CCCCCCCCl [1-chloroheptane]
Settings	mass density [kg/m3]	refractive index
[3]	872.79 ± 0.36	–
[4]	–	1.4236 ± 0.0004

CCCCCl [1-chlorobutane]
Settings	mass density [kg/m3]	refractive index
[3]	880.87 ± 0.35	–
[4]	–	1.3996 ± 0.0004

— the NIST ThermoML archive (doi:10.1007/s10765-010-0902-x)
